Source: US11535643B2, “Macrolides with modified desosamine sugars and uses thereof” (President and Fellows of Harvard College, priority 2015, dated 2022)
Values after ≈ are worked out from the molar mass of the structure shown. Read-outs that look alike come from different tables or passages of the source.

Legend:
Type in all cases: cell-based
S. aureus = experiment: Broth dilution MIC determination (CLSI) against S. aureus strains; conditions: for MIC: Staphylococcus aureus
How it was run: (§1)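 MICs were determined by CLSI standard broth dilution against several strains per species, including multidrug-resistant and macrolide-resistant strains. Azithromycin and solithromycin served as control compounds.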

S. pneumoniae = experiment: Broth dilution MIC determination (CLSI) against S. pneumoniae strains; conditions: for MIC: Streptococcus pneumoniae
How it was run: as §1

S. pyogenes = experiment: Broth dilution MIC determination (CLSI) against S. pyogenes strains; conditions: for MIC: Streptococcus pyogenes
How it was run: as §1

E. faecalis = experiment: Broth dilution MIC determination (CLSI) against E. faecalis strains; conditions: for MIC: Enterococcus faecalis
How it was run: as §1

E. coli = experiment: Broth dilution MIC determination (CLSI) against E. coli strains; conditions: for MIC: Escherichia coli
How it was run: as §1

A. baumannii = experiment: Broth dilution MIC determination (CLSI) against A. baumannii strains; conditions: for MIC: Acinetobacter baumannii
How it was run: as §1

K. pneumoniae = experiment: Broth dilution MIC determination (CLSI) against K. pneumoniae strains; conditions: for MIC: Klebsiella pneumoniae
How it was run: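 CLSI broth-dilution MICs across a panel including multidrug- and macrolide-resistant strains, with azithromycin and solithromycin as control compounds.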

P. aeruginosa = experiment: Broth dilution MIC determination (CLSI) against P. aeruginosa strains; conditions: for MIC: Pseudomonas aeruginosa
How it was run: as §1

H. influenzae = experiment: Broth dilution MIC determination (CLSI) against H. influenzae strains; conditions: for MIC: Haemophilus influenzae
From the text: Minimum inhibitory concentrations (MICs) for macrolides described herein have been determined for unique strains of S. aureus, S. pneumoniae, S. pyogenes, E. faecalis, E. coli, A. baumannii, K. pneumoniae, P. aeruginosa, and H. influenzae, including several multidrug-resistant strains, with a special focus on macrolide resistant mechanisms. Azithromycin and solithromycin were included as control compounds. CLSI standard procedures for broth dilution MIC determination were used. Data for exemplary compounds described herein is shown in Tables M1-M7 and in Tables N1-N4.

[1] = ATCC29213, ATCC29213, read-out: MIC S. aureus ATCC29213
[2] = MRSA / USA100, MRSA: USA100, read-out: MIC S. aureus MRSA: USA100
[3] = MRSA / USA300, MRSA: USA300, read-out: MIC S. aureus MRSA: USA300
[4] = USA600, USA600, GISA, read-out: MIC S. aureus USA600, GISA
[5] = read-out: MIC S. aureus erm A genotype
[6] = ATCC49619, ATCC49619, read-out: MIC S. pneumoniae ATCC49619
[7] = erm B + mef A genotype, read-out: MIC S. pneumoniae erm B + mef A genotype
[8] = erm B + tet(M, O) genotype, read-out: MIC S. pneumoniae erm B + tet(M, O) genotype
[9] = read-out: MIC S. pneumoniae mef A genotype, mef A genotype
[10] = ATCC19615, ATCC19615, read-out: MIC S. pyogenes ATCC19615
[11] = macrolide-resistant, read-out: MIC S. pyogenes macrolide-resistant
[12] = ATCC29212, ATCC29212, read-out: MIC E. faecalis ATCC29212
[13] = Vancomycin-resistant, read-out: MIC E. faecalis Vancomycin-resistant
[14] = ATCC25922, ATCC25922, read-out: MIC E. coli ATCC25922
[15] = read-out: MIC E. coli NDM-1, NDM-1
[16] = ATCC19606, ATCC19606, read-out: MIC A. baumannii ATCC19606
[17] = imipenem-resistant, read-out: MIC A. baumannii imipenem-resistant
[18] = ATCC10031, ATCC10031, read-out: MIC K. pneumoniae ATCC10031
[19] = KPC-2, read-out: MIC K. pneumoniae KPC-2
[20] = ATCC27853, read-out: MIC P. aeruginosa ATCC27853
[21] = ATCC49247, ATCC49247, read-out: MIC H. influenzae ATCC49247
[22] = erythro > 4, azithro 1, read-out: MIC H. influenzae erythro > 4, azithro 1

CC[C@H]1OC(=O)[C@@](C)(F)C(=O)[C@H](C)[C@@H](O[C@@H]2O[C@H](C)C[C@H](N(C)C)[C@H]2O)[C@](C)(OC)C[C@@H](C)C(=O)[C@H](C)[C@H]2N(CCCCn3cc(-c4cccc(N)c4)nn3)C(=O)O[C@]12C [Solithromycin, solithromycin, reference compound]
MIC (S. aureus; [1]): 0.125 µg/mL (≈ 0.148 µM) | MIC (S. aureus; [2]): > 32 µg/mL | MIC (S. aureus; [3]): 1 µg/mL (≈ 1.18 µM) | MIC (S. aureus; [4]): > 32 µg/mL | MIC (S. aureus; [5]): > 32 µg/mL | MIC (S. pneumoniae; [6]): < 0.0312 µg/mL | MIC (S. pneumoniae; [7]): 0.25 µg/mL | MIC (S. pneumoniae; [8]): < 0.0312 µg/mL | MIC (S. pneumoniae; [9]): 0.125 µg/mL (≈ 0.148 µM) | MIC (S. pyogenes; [10]): < 0.0312 µg/mL | MIC (S. pyogenes; [11]): 0.0625 µg/mL (≈ 0.074 µM) | MIC (E. faecalis; [12]): < 0.0312 µg/mL | MIC (E. faecalis; [13]): 32 µg/mL (≈ 37.9 µM) | MIC (E. coli; [14]): 32 µg/mL (≈ 37.9 µM) | MIC (E. coli; read-out: MIC E. coli CTX-M-14, CTX-M-14): > 32 µg/mL | MIC (E. coli; [15]): > 32 µg/mL | MIC (E. coli; read-out: MIC E. coli TEM-1, TEM-1): 32 µg/mL (≈ 37.9 µM) | MIC (A. baumannii; [16]): 8 µg/mL (≈ 9.47 µM) | MIC (A. baumannii; IMP-4, read-out: MIC A. baumannii IMP-4): > 32 µg/mL | MIC (A. baumannii; chromosomal class C, read-out: MIC A. baumannii chromosomal class C): 8 µg/mL (≈ 9.47 µM) | MIC (A. baumannii; [17]): 4 µg/mL (≈ 4.73 µM) | MIC (K. pneumoniae; [18]): 8 µg/mL (≈ 9.47 µM) | MIC (K. pneumoniae; [19]): > 32 µg/mL | MIC (K. pneumoniae; SHV-12, read-out: MIC K. pneumoniae SHV-12): > 32 µg/mL | MIC (K. pneumoniae; TEM-10, read-out: MIC K. pneumoniae TEM-10): > 32 µg/mL | MIC (P. aeruginosa; [20]): > 32 µg/mL | MIC (P. aeruginosa; read-out: MIC P. aeruginosa HPA101-1477): > 32 µg/mL | MIC (H. influenzae; [21]): 4 µg/mL (≈ 4.73 µM) | MIC (H. influenzae; [22]): 2 µg/mL (≈ 2.37 µM)

CC[C@H]1OC(=O)[C@H](C)C(=O)[C@H](C)[C@@H](O[C@@H]2OC(CNC(=O)c3ccccc3)CC(N(C)C)C2O)[C@](C)(OC)C[C@@H](C)CN[C@H](C)[C@H]2N(CCCCn3cc(-c4cccc(N)c4)nn3)C(=O)O[C@]12C (stereo partly shown) [FSM-21880]
MIC (S. aureus; [1]): 32 µg/mL (≈ 33.8 µM) | MIC (S. aureus; [2]): > 32 µg/mL | MIC (S. aureus; [3]): > 32 µg/mL | MIC (S. aureus; [4]): > 32 µg/mL | MIC (S. aureus; [5]): > 32 µg/mL | MIC (S. pneumoniae; [6]): < 0.0313 µg/mL | MIC (S. pneumoniae; [7]): 1 µg/mL | MIC (S. pneumoniae; [8]): < 0.0313 µg/mL | MIC (S. pneumoniae; [9]): 2 µg/mL (≈ 2.11 µM) | MIC (S. pneumoniae; read-out: MIC S. pneumoniae mef A genotype, mef A genotype, first of two such columns (c3)): 0.0625 µg/mL (≈ 0.066 µM) | MIC (S. pyogenes; [10]): < 0.0313 µg/mL | MIC (S. pyogenes; [11]): 1 µg/mL (≈ 1.06 µM) | MIC (E. faecalis; [12]): 4 µg/mL (≈ 4.22 µM) | MIC (E. faecalis; [13]): > 32 µg/mL | MIC (E. coli; [14]): 16 µg/mL (≈ 16.9 µM) | MIC (E. coli; [15]): 32 µg/mL (≈ 33.8 µM) | MIC (A. baumannii; [16]): > 32 µg/mL | MIC (A. baumannii; [17]): 32 µg/mL (≈ 33.8 µM) | MIC (K. pneumoniae; [18]): 8 µg/mL (≈ 8.45 µM) | MIC (K. pneumoniae; [19]): > 32 µg/mL | MIC (P. aeruginosa; [20]): > 32 µg/mL | MIC (H. influenzae; [21]): 4 µg/mL (≈ 4.22 µM) | MIC (H. influenzae; [22]): 4 µg/mL (≈ 4.22 µM)

CCC1OC(=O)C(C)C(=O)C(C)C(OC2OC(COC(=O)c3ccccc3)C(O)C(N(C)C)C2O)C(C)(OC)CC(C)CNC(C)C2N(CCCCn3cc(-c4cccc(N)c4)nn3)C(=O)OC12C (stereo not shown) [FSM-21797]
MIC S. aureus ATCC29213 (S. aureus; ATCC29213): >32 µg/mL | MIC S. aureus MRSA: USA100 (S. aureus; MRSA: USA100): >32 µg/mL | MIC S. aureus MRSA: USA300 (S. aureus; MRSA: USA300): >32 µg/mL | MIC S. aureus USA600, GISA (S. aureus; USA600, GISA): >32 µg/mL | MIC S. aureus erm A genotype (S. aureus; erm A genotype): >32 µg/mL | MIC S. pneumoniae ATCC49619 (S. pneumoniae; ATCC49619): 32 µg/mL (≈ 33.2 µM) | MIC S. pneumoniae erm B + mef A genotype (S. pneumoniae; erm B + mef A genotype): >32 µg/mL | MIC S. pneumoniae erm B + tet(M, O) genotype (S. pneumoniae; erm B + tet(M, O) genotype): 16 µg/mL | MIC S. pyogenes ATCC19615 (S. pyogenes; ATCC19615): 8 µg/mL (≈ 8.3 µM) | MIC S. pyogenes macrolide-resistant (S. pyogenes; macrolide-resistant): 32 µg/mL (≈ 33.2 µM) | MIC E. faecalis ATCC29212 (E. faecalis; ATCC29212): 32 µg/mL (≈ 33.2 µM) | MIC E. faecalis Vancomycin-resistant (E. faecalis; Vancomycin-resistant): >32 µg/mL | MIC E. coli ATCC25922 (E. coli; ATCC25922): >32 µg/mL | MIC E. coli NDM-1 (E. coli; NDM-1): >32 µg/mL | MIC A. baumannii ATCC19606 (A. baumannii; ATCC19606): >32 µg/mL | MIC A. baumannii imipenem-resistant (A. baumannii; imipenem-resistant): >32 µg/mL | MIC K. pneumoniae ATCC10031 (K. pneumoniae; ATCC10031): >32 µg/mL | MIC K. pneumoniae KPC-2 (K. pneumoniae; KPC-2): >32 µg/mL | MIC P. aeruginosa ATCC27853 (P. aeruginosa; ATCC27853): >32 µg/mL | MIC H. influenzae ATCC49247 (H. influenzae; ATCC49247): >32 µg/mL | MIC H. influenzae erythro > 4, azithro 1 (H. influenzae; erythro > 4, azithro 1): >32 µg/mL
